Results as given in patent publication EP0210284B1, “1,3-Dithiol-2-ylidene derivatives” (priority 1985, dated 1987).
Where two headings read alike, the source gives them in different places.

Legend:
mice (ddY mice) = test: Acute toxicity test; format: in vivo; settings: oral in olive oil, mortality one week after the administration, n=5
Description: A test compound was dissolved or suspended in olive oil and administered orally to mice (ddY mice, ? , 23±2g, n=5). The acute toxicity value (LD₅₀) was determined from the mortality one week after the administration.

[1] = system: Acute Liver Injury Induced by D-Galactosamine; test: Protective effect on acute liver injury induced by D-galactosamine; format: in vivo, rats (SD strain); settings: 50mg/kg orally twice daily for 6 days, D-galactosamine 200mg/kg x 3 i.p.; for Glucose / P-GPT: plasma 48 hours after first injection; for Glucose: D-Galactosamine alone 32±4, Normal 142±4; for P-GPT: D-Galactosamine alone 4825±590, Normal 29±2; for ALP: alkaline phosphatase in plasma, D-Galactosamine alone 176±6, Normal 500±63
Description: A test compound was dissolved or suspended in olive oil and orally administered twice daily for 6 days at a dose of 50mg/kg to rats (SD strain, ? , 225 ±15g, 7 weeks-old, n=5). On the 6th day, D-galactosamine (200mg/kg x 3) was intraperitoneally administered three times at 3-hour intervals. 48 Hours after the first injection of D-galactosamine, the animals were sacrificed by exsanguination from the abdominal aorta. The protective effect was evaluated by examining the biochemical parameters (p-GPT, glucose, alkaline phosphatase) in plasma.

[2] = system: Fatty Liver Induced by Carbon Tetrachloride; test: Therapeutic effect on fatty liver induced by carbon tetrachloride; format: in vivo, rats (SD strain); set-up: Apoprotein: unit not given here
Description: Carbon tetrachloride (1ml/kg) was subcutaneously administered to rats (SD strain, ? , 38 week-old, n=5) for 4 days. Upon expiration of 3 days from the administration of carbon tetrachloride, Compound 6 was orally given successively for 7 days at the dose of 50mg/kg. On the 8th day, the animals were sacrificed by exsanguination. The therapeutic effect was evaluated by examining the content of triglyceride in the liver and the concentration of apoprotein B in the plasma. […]

[3] = system: Acute Liver Injury Induced by Carbon Tetrachloride; test: Protective effect on acute liver injury induced by carbon tetrachloride; format: in vivo, mice (ddY mice); settings: for Liver Damage Index: 50mg/kg orally in olive oil 6 hours before carbon tetrachloride (0.05ml/kg orally), visual score 0: normal, 2: slightly, 4: distinctly, 6: remarkably injured, n=5, CCl4 alone 6.0; for inhibition in vivo at 50 mg/kg: Mus musculus, po, 50mg/kg orally 6 hours before carbon tetrachloride (0.05ml/kg orally), CCl4 alone 0, Normal 100
Description: A test compound was dissolved or suspended in olive oil and administered orally at a dose of 50mg/kg to mice (ddY mice, ? , 23 ± 2g, n=5). After 6 hours, carbon tetrachloride (0.05ml/kg) was administered orally. 24 Hours after the administration of carbon tetrachloride, BSP (sodium sulfobromophthalene; 75mg/kg) was administered intravenously. Thirty minutes later, the cardiac blood was collected, and GPT (glutamic-pyruvic transaminase) activity and the retention rate of BSP in the plasma were measured. Further, the liver injury immediately after the collection of the blood was visually observed and evaluated by the following score for liver damage index. 0: normal 2: Slightly injured 4: distinctly injured 6: remarkably injured

[4] = system: Protein Synthesis in Liver; test: Effect on protein synthesis in liver; format: in vivo, rats (Wister strain); settings: 100mg/kg orally for 3 days
Description: Compound 6 was dissolved in olive oil and orally administered successively for 3 days at a dose of 100mg/kg to rats (Wister strain, ? , 180±10g, 6 week-old, n=5). 24 Hours after the administration of the test compound was completed, the animals were sacrificed. The effect on the protein synthesis in the liver was evaluated by determining the liver weight and protein content.

[5] = 24.5 h, retention rate of BSP in plasma 30 minutes after BSP 75mg/kg i.v., read-out: % Prophylaxis BSP
[6] = plasma GPT about 24.5 hours after CCl4, read-out: % Prophylaxis p-GPT

SMILES | acute toxicity value (LD50) (mice (ddY mice)) | Glucose [1] [mg/dL] | P-GPT [1] [U/l] | ALP [1] [U/l] | effect for curing the fatty liver ([2]; 50mg/kg orally for 7 days, rats with CCl4-induced fatty liver, statement in words) | Apoprotein ([2]; apoprotein B in plasma, carbon tetrachloride 1ml/kg s.c. for 4 days, compound 50mg/kg orally for 7 days, CCl4 alone 66± 2, Normal 125± 8) | Triglyceride ([2]; carbon tetrachloride 1ml/kg s.c. for 4 days, compound 50mg/kg orally for 7 days, liver content on the 8th day, CCl4 alone 99± 6, Normal 33± 5) [mg/g-liver] | Liver Damage Index [3] | inhibition in vivo at 50 mg/kg [3, 5] [%] | inhibition in vivo at 50 mg/kg [3, 6] [%] | Liver Weight ([4]; 24 hours after last administration, Control 6.3±0.1) [g/100g b.w.] | Liver Protein ([4]; 24 hours after last administration, Control 883±79) [mg/100g b.w.] | effect for stimulating the protein metabolic function of the liver ([4]; statement in words)
CC(=O)C(C(=O)c1ccccc1)=C1SC=CS1 [Compound 6, 2-(1,3-dithiol-2-ylidene)-1-phenyl-1,3-butanedione] | at least 2 g | 81 ± 9 | 908±248 | 398±45 | significant effect for curing the fatty liver | 112± 23 | 33± 7 | 0.4 | 103 | 100 | 8.6±0.3 | 1247±62 | substantial effect for stimulating the protein metabolic function of the liver
CC(=O)C(C(=O)c1nc2ccccc2[nH]1)=C1SC=CS1 [Compound 47, 2-(1,3-dithiol-2-ylidene)-1-(2-benzimidazolyl)-1,3-butanedione] | – | 55 ± 2 | 2938±694 | 287±25 | – | – | – | 2.4 | 103 | 91 | – | – | –
